Data as given in patent publication US5714576A, “Linear analogs of alpha-msh fragments” (Competitive Technologies, Inc., priority 1997, dated 1998).
Like-named read-outs stand apart in the source and are kept apart here. Positions of bridges follow the written chain, without caps; N, C: chain ends. Non-standard residues stand in square brackets, D forms with d. Residues, ends and D or L forms follow the SMILES beside them. Nle = CCCC[C@H](N)C(=O)O; Dab = NCC[C@H](N)C(=O)O

Columns and labels:
Frog (Rana pipiens) Skin = format: cell-based
Method: (§1) The biological potencies of alpha-MSH, the linear and cyclic analogues were determined by their ability to stimulate melanosome dispersion in vitro in the frog and lizard bioassays. This in vitro assay provides clear cut dose response curves (between 2.5×10^-11 and 4×10^-10 M) and can detect minimal concentration of alpha-MSH of about 10^-11 M. The assay is based upon the centrifugal dispersion of melanosomes (melanin granules) within the dendritic processes of integumental dermal melanophores leading to darkening of the skin. All the test solutions were prepared via serial dilutions from a stock solution (10^-4 M). The frogs (Rana pipiens) used in these evaluations were obtained from Kons Scientific, Germantown, Wis., and the lizards (Anolis carolinensis) were from the Snake Farm, La Place, La.

[1] = system: Lizard (Anolis carolinensis) Skin; format: cell-based; details: for Residual Activity Lizard (prolonged action): linear analogues
Method: as §1

[2] = cyclic analogues, alpha-MSH = 1.0

CCCC[C@H](NC(=O)[C@H](CO)NC(=O)[C@H](Cc1ccc(O)cc1)NC(=O)[C@H](CO)NC(C)=O)C(=O)N[C@@H](CCC(=O)O)C(=O)N[C@@H](Cc1c[nH]cn1)C(=O)N[C@H](Cc1ccccc1)C(=O)N[C@@H](CCCNC(=N)N)C(=O)N[C@@H](Cc1c[nH]c2ccccc12)C(=O)N[C@@H](CCCCN)C(=O)NCC(=O)N1CCC[C@H]1C(=O)N[C@H](C(N)=O)C(C)C [Analogue 1] (Ac-SYS[Nle]EH[dF]RWKGPV-NH2)
Biological Potency Frog (Frog (Rana pipiens) Skin): 6.0
Residual Activity Frog (prolonged action) (Frog (Rana pipiens) Skin; linear analogues): P(+)
Biological Potency Lizard [1]: 8.0
Residual Activity Lizard (prolonged action) [1]: P(-)

CCCC[C@H](NC(=O)[C@H](CO)NC(=O)[C@H](Cc1ccc(O)cc1)NC(=O)[C@H](CO)NC(C)=O)C(=O)N[C@@H](CC(=O)O)C(=O)N[C@@H](Cc1c[nH]cn1)C(=O)N[C@H](Cc1ccccc1)C(=O)N[C@@H](CCCNC(=N)N)C(=O)N[C@@H](Cc1c[nH]c2ccccc12)C(=O)N[C@@H](CCCCN)C(=O)NCC(=O)N1CCC[C@H]1C(=O)N[C@H](C(N)=O)C(C)C [Analogue 2] (Ac-SYS[Nle]DH[dF]RWKGPV-NH2)
Biological Potency Frog (Frog (Rana pipiens) Skin): 9.0
Residual Activity Frog (prolonged action) (Frog (Rana pipiens) Skin; linear analogues): P(+)
Biological Potency Lizard [1]: 8.0
Residual Activity Lizard (prolonged action) [1]: P(-)

CCCC[C@H](NC(C)=O)C(=O)N[C@@H](CCC(=O)O)C(=O)N[C@@H](Cc1c[nH]cn1)C(=O)N[C@H](Cc1ccccc1)C(=O)N[C@@H](CCCNC(=N)N)C(=O)N[C@@H](Cc1c[nH]c2ccccc12)C(=O)N[C@@H](CCCCN)C(=O)NCC(=O)N1CCC[C@H]1C(=O)N[C@H](C(N)=O)C(C)C [Analogue 3] (Ac-[Nle]EH[dF]RWKGPV-NH2)
Biological Potency Frog (Frog (Rana pipiens) Skin): 0.8
Residual Activity Frog (prolonged action) (Frog (Rana pipiens) Skin; linear analogues): P(+)
Biological Potency Lizard [1]: 8.0
Residual Activity Lizard (prolonged action) [1]: P(+)

CCCC[C@H](NC(C)=O)C(=O)N[C@@H](CC(=O)O)C(=O)N[C@@H](Cc1c[nH]cn1)C(=O)N[C@H](Cc1ccccc1)C(=O)N[C@@H](CCCNC(=N)N)C(=O)N[C@@H](Cc1c[nH]c2ccccc12)C(=O)N[C@@H](CCCCN)C(=O)NCC(=O)N1CCC[C@H]1C(=O)N[C@H](C(N)=O)C(C)C [Analogue 4] (Ac-[Nle]DH[dF]RWKGPV-NH2)
Biological Potency Frog (Frog (Rana pipiens) Skin): 1.0
Residual Activity Frog (prolonged action) (Frog (Rana pipiens) Skin; linear analogues): P(+)
Biological Potency Lizard [1]: 10.0
Residual Activity Lizard (prolonged action) [1]: P(+)

CCCC[C@H](NC(C)=O)C(=O)N[C@@H](CC(=O)O)C(=O)N[C@@H](Cc1c[nH]cn1)C(=O)N[C@H](Cc1ccccc1)C(=O)N[C@@H](CCCNC(=N)N)C(=O)N[C@@H](Cc1c[nH]c2ccccc12)C(=O)NCC(N)=O [Analogue 5]
Biological Potency Frog (Frog (Rana pipiens) Skin): 0.1
Residual Activity Frog (prolonged action) (Frog (Rana pipiens) Skin; linear analogues): P(-)
Biological Potency Lizard [1]: 8.0
Residual Activity Lizard (prolonged action) [1]: P(-)

CCCC[C@H](NC(C)=O)C(=O)N[C@@H](CCC(=O)O)C(=O)N[C@@H](Cc1c[nH]cn1)C(=O)N[C@H](Cc1ccccc1)C(=O)N[C@@H](CCCNC(=N)N)C(=O)N[C@@H](Cc1c[nH]c2ccccc12)C(=O)N[C@@H](CCCCN)C(N)=O [Analogue 6]
Biological Potency Frog (Frog (Rana pipiens) Skin): 0.2
Residual Activity Frog (prolonged action) (Frog (Rana pipiens) Skin; linear analogues): P(-)
Biological Potency Lizard [1]: 8.0
Residual Activity Lizard (prolonged action) [1]: P(-)

CCCC[C@H](NC(C)=O)C(=O)N[C@@H](CC(=O)O)C(=O)N[C@@H](Cc1c[nH]cn1)C(=O)N[C@H](Cc1ccccc1)C(=O)N[C@@H](CCCNC(=N)N)C(=O)N[C@@H](Cc1c[nH]c2ccccc12)C(=O)N[C@@H](CCCCN)C(N)=O [Analogue 7]
Biological Potency Lizard [1]: 8.0
Residual Activity Lizard (prolonged action) [1]: P(-)

CCCC[C@H](NC(C)=O)C(=O)N[C@@H](CCC(=O)O)C(=O)N[C@@H](Cc1c[nH]cn1)C(=O)N[C@H](Cc1ccccc1)C(=O)N[C@@H](CCCNC(=N)N)C(=O)N[C@@H](Cc1c[nH]c2ccccc12)C(=O)N[C@@H](CCCN)C(N)=O [Analogue 8]
Biological Potency Frog (Frog (Rana pipiens) Skin): 0.6
Residual Activity Frog (prolonged action) (Frog (Rana pipiens) Skin; linear analogues): P(-)
Biological Potency Lizard [1]: 8.0
Residual Activity Lizard (prolonged action) [1]: P(-)

CCCC[C@H](NC(C)=O)C(=O)N[C@@H](CC(=O)O)C(=O)N[C@@H](Cc1c[nH]cn1)C(=O)N[C@H](Cc1ccccc1)C(=O)N[C@@H](CCCNC(=N)N)C(=O)N[C@@H](Cc1c[nH]c2ccccc12)C(=O)N[C@@H](CCCN)C(N)=O [Analogue 9]
Biological Potency Frog (Frog (Rana pipiens) Skin): 0.9
Biological Potency Lizard [1]: 10.0
Residual Activity Lizard (prolonged action) [1]: P(-)

CCCC[C@H](NC(C)=O)C(=O)N[C@@H](CCC(=O)O)C(=O)N[C@@H](Cc1c[nH]cn1)C(=O)N[C@H](Cc1ccccc1)C(=O)N[C@@H](CCCNC(=N)N)C(=O)N[C@@H](Cc1c[nH]c2ccccc12)C(=O)N[C@@H](CCN)C(N)=O [Analogue 10] (Ac-[Nle]EH[dF]RW[Dab]-NH2)
Biological Potency Frog (Frog (Rana pipiens) Skin): 0.9
Residual Activity Frog (prolonged action) (Frog (Rana pipiens) Skin; linear analogues): P(±)
Biological Potency Lizard [1]: 10.0
Residual Activity Lizard (prolonged action) [1]: P(±)

CCCC[C@H](NC(C)=O)C(=O)N[C@@H](CC(=O)O)C(=O)N[C@@H](Cc1c[nH]cn1)C(=O)N[C@@H](Cc1ccccc1)C(=O)N[C@@H](CCCNC(=N)N)C(=O)N[C@@H](Cc1c[nH]c2ccccc12)C(=O)N[C@@H](CCCCN)C(N)=O [Analogue 14]
Biological Potency Lizard [1]: 0.08
Residual Activity Lizard (prolonged action) [1]: P(-)

CCCC[C@H](NC(=O)[C@H](CO)NC(=O)[C@H](Cc1ccc(O)cc1)NC(=O)[C@H](CO)NC(C)=O)C(=O)N[C@H]1CC(=O)NCCCC[C@@H](C(=O)NCC(=O)N2CCC[C@H]2C(=O)N[C@H](C(N)=O)C(C)C)NC(=O)[C@H](Cc2c[nH]c3ccccc23)NC(=O)[C@H](CCCNC(=N)N)NC(=O)[C@@H](Cc2ccccc2)NC(=O)[C@H](Cc2c[nH]cn2)NC1=O [Analogue 21] (Ac-SYS[Nle]DH[dF]RWKGPV-NH2; lactam 5-10)
Residual Activity Frog (prolonged action) (Frog (Rana pipiens) Skin; cyclic analogues): p(+)
Biological Potency Frog (Frog (Rana pipiens) Skin; [2]): 8.0

CCCC[C@H](NC(=O)[C@H](CO)NC(=O)[C@H](Cc1ccc(O)cc1)NC(=O)[C@H](CO)NC(C)=O)C(=O)N[C@H]1CC(=O)NCCCC[C@@H](C(N)=O)NC(=O)[C@H](Cc2c[nH]c3ccccc23)NC(=O)[C@H](CCCNC(=N)N)NC(=O)[C@@H](Cc2ccccc2)NC(=O)[C@H](Cc2c[nH]cn2)NC1=O [Analogue 22] (Ac-SYS[Nle]DH[dF]RWK-NH2; lactam 5-10)
Residual Activity Frog (prolonged action) (Frog (Rana pipiens) Skin; cyclic analogues): p(+)
Biological Potency Frog (Frog (Rana pipiens) Skin; [2]): 2.0

CCCC[C@H](NC(=O)[C@H](CO)NC(=O)[C@H](Cc1ccc(O)cc1)NC(C)=O)C(=O)N[C@H]1CC(=O)NCCCC[C@@H](C(N)=O)NC(=O)[C@H](Cc2c[nH]c3ccccc23)NC(=O)[C@H](CCCNC(=N)N)NC(=O)[C@@H](Cc2ccccc2)NC(=O)[C@H](Cc2c[nH]cn2)NC1=O [Analogue 23] (Ac-YS[Nle]DH[dF]RWK-NH2; lactam 4-9)
Residual Activity Frog (prolonged action) (Frog (Rana pipiens) Skin; cyclic analogues): p(+)
Biological Potency Frog (Frog (Rana pipiens) Skin; [2]): 0.7

CCCC[C@H](NC(=O)[C@H](CO)NC(C)=O)C(=O)N[C@H]1CC(=O)NCCCC[C@@H](C(N)=O)NC(=O)[C@H](Cc2c[nH]c3ccccc23)NC(=O)[C@H](CCCNC(=N)N)NC(=O)[C@@H](Cc2ccccc2)NC(=O)[C@H](Cc2c[nH]cn2)NC1=O [Analogue 24] (Ac-S[Nle]DH[dF]RWK-NH2; lactam 3-8)
Residual Activity Frog (prolonged action) (Frog (Rana pipiens) Skin; cyclic analogues): p(+)
Biological Potency Frog (Frog (Rana pipiens) Skin; [2]): 1.0

CCCC[C@H](NC(C)=O)C(=O)N[C@H]1CC(=O)NCCCC[C@@H](C(=O)NCC(N)=O)NC(=O)[C@H](Cc2c[nH]c3ccccc23)NC(=O)[C@H](CCCNC(=N)N)NC(=O)[C@@H](Cc2ccccc2)NC(=O)[C@H](Cc2c[nH]cn2)NC1=O [Analogue 26] (Ac-[Nle]DH[dF]RWKG-NH2; lactam 2-7)
Residual Activity Frog (prolonged action) (Frog (Rana pipiens) Skin; cyclic analogues): p(+)
Biological Potency Frog (Frog (Rana pipiens) Skin; [2]): 5.5

CCCC[C@H](NC(C)=O)C(=O)N[C@H]1CC(=O)NCCCC[C@@H](C(=O)NCC(=O)N2CCC[C@H]2C(N)=O)NC(=O)[C@H](Cc2c[nH]c3ccccc23)NC(=O)[C@H](CCCNC(=N)N)NC(=O)[C@@H](Cc2ccccc2)NC(=O)[C@H](Cc2c[nH]cn2)NC1=O [Analogue 27] (Ac-[Nle]DH[dF]RWKGP-NH2; lactam 2-7)
Residual Activity Frog (prolonged action) (Frog (Rana pipiens) Skin; cyclic analogues): p(+)
Biological Potency Frog (Frog (Rana pipiens) Skin; [2]): 4.0

CCCC[C@H](NC(C)=O)C(=O)N[C@H]1CC(=O)NCCCC[C@@H](C(=O)NCC(=O)N2CCC[C@H]2C(=O)N[C@H](C(N)=O)C(C)C)NC(=O)[C@H](Cc2c[nH]c3ccccc23)NC(=O)[C@H](CCCNC(=N)N)NC(=O)[C@@H](Cc2ccccc2)NC(=O)[C@H](Cc2c[nH]cn2)NC1=O [Analogue 28] (Ac-[Nle]DH[dF]RWKGPV-NH2; lactam 2-7)
Residual Activity Frog (prolonged action) (Frog (Rana pipiens) Skin; cyclic analogues): p(+)
Biological Potency Frog (Frog (Rana pipiens) Skin; [2]): 2.0

CCCC[C@H](NC(=O)[C@H](CO)NC(C)=O)C(=O)N[C@H]1CC(=O)NCCCC[C@@H](C(=O)NCC(=O)N2CCC[C@H]2C(=O)N[C@H](C(N)=O)C(C)C)NC(=O)[C@H](Cc2c[nH]c3ccccc23)NC(=O)[C@H](CCCNC(=N)N)NC(=O)[C@@H](Cc2ccccc2)NC(=O)[C@H](Cc2c[nH]cn2)NC1=O [Analogue 29] (Ac-S[Nle]DH[dF]RWKGPV-NH2; lactam 3-8)
Residual Activity Frog (prolonged action) (Frog (Rana pipiens) Skin; cyclic analogues): p(+)
Biological Potency Frog (Frog (Rana pipiens) Skin; [2]): 9.0
